# PubChem BioAssay AID1963872 (Molecular Pharmacology Branch, DTP, NCI, 2024)
# System: KRAS patient-derived spheroids with HUVEC/MSC, viability
# Experiment: Anticancer human tumor 519858-162-T-J1-PDC patient-derived colon adenocarcinoma cell line growth inhibition [KRAS2]
# Details: for IC50: curve of first compound; for viability, T/C: stronger effect = lower value
# How it was run: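 KRAS-mutant tumor cells were grown as spheroids with HUVEC endothelial cells and human MSCs as stroma. Targeted agents were tested alone and with KRAS pathway inhibitors. Doses started at or near clinical Cmax, or 10 microM, descending half-log.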
# [1] = second compound 0.1 µM, first compound 0.0316 µM
# [2] = second compound 0.1 µM, first compound 0.1 µM
# [3] = second compound 0.1 µM, first compound 0.316 µM
# [4] = second compound 0.1 µM, first compound 1 µM
# [5] = second compound 0.1 µM, first compound 3.16 µM
# [6] = second compound 0.1 µM, first compound 10 µM
# [7] = second compound 0.316 µM, first compound 0.0316 µM
# [8] = second compound 0.316 µM, first compound 0.1 µM
# [9] = second compound 0.316 µM, first compound 0.316 µM
# [10] = second compound 0.316 µM, first compound 1 µM
# [11] = second compound 0.316 µM, first compound 3.16 µM
# [12] = second compound 0.316 µM, first compound 10 µM
# [13] = second compound 1 µM, first compound 0.0316 µM
# [14] = second compound 1 µM, first compound 0.1 µM
# [15] = second compound 1 µM, first compound 0.316 µM
# [16] = second compound 1 µM, first compound 1 µM
# [17] = second compound 1 µM, first compound 3.16 µM
# [18] = second compound 1 µM, first compound 10 µM
# [19] = second compound 3.16 µM, first compound 0.0316 µM
# [20] = second compound 3.16 µM, first compound 0.1 µM
# [21] = second compound 3.16 µM, first compound 0.316 µM
# [22] = second compound 3.16 µM, first compound 1 µM
# [23] = second compound 3.16 µM, first compound 3.16 µM
# [24] = second compound 3.16 µM, first compound 10 µM
# [25] = second compound 10 µM, first compound 0.0316 µM
# [26] = second compound 10 µM, first compound 0.1 µM
# [27] = second compound 10 µM, first compound 0.316 µM
# [28] = second compound 10 µM, first compound 1 µM
# [29] = second compound 10 µM, first compound 3.16 µM
# [30] = second compound 10 µM, first compound 10 µM
# [31] = second compound 0.1 µM, first compound 0.000316 µM
# [32] = second compound 0.1 µM, first compound 0.001 µM
# [33] = second compound 0.1 µM, first compound 0.00316 µM
# [34] = second compound 0.1 µM, first compound 0.01 µM
# [35] = second compound 0.316 µM, first compound 0.000316 µM
# [36] = second compound 0.316 µM, first compound 0.001 µM
# [37] = second compound 0.316 µM, first compound 0.00316 µM
# [38] = second compound 0.316 µM, first compound 0.01 µM
# [39] = second compound 1 µM, first compound 0.000316 µM
# [40] = second compound 1 µM, first compound 0.001 µM
# [41] = second compound 1 µM, first compound 0.00316 µM
# [42] = second compound 1 µM, first compound 0.01 µM
# [43] = second compound 3.16 µM, first compound 0.000316 µM
# [44] = second compound 3.16 µM, first compound 0.001 µM
# [45] = second compound 3.16 µM, first compound 0.00316 µM
# [46] = second compound 3.16 µM, first compound 0.01 µM
# [47] = second compound 10 µM, first compound 0.000316 µM
# [48] = second compound 10 µM, first compound 0.001 µM
# [49] = second compound 10 µM, first compound 0.00316 µM
# [50] = second compound 10 µM, first compound 0.01 µM
# 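Further: compound exposure lasted seven days before readout.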
# 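Wherever viability, T/C is given: 100% = DMSO vehicle control viability.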
SMILES,IC50 (second compound 0.1 µM) [µM],IC50 (second compound 0.316 µM) [µM],IC50 (second compound 1 µM) [µM],IC50 (second compound 3.16 µM) [µM],IC50 (second compound 10 µM) [µM],"viability, T/C [1] [%]","viability, T/C [2] [%]","viability, T/C [3] [%]","viability, T/C [4] [%]","viability, T/C [7] [%]","viability, T/C [8] [%]","viability, T/C [9] [%]","viability, T/C [10] [%]","viability, T/C [13] [%]","viability, T/C [14] [%]","viability, T/C [15] [%]","viability, T/C [19] [%]","viability, T/C [20] [%]","viability, T/C [25] [%]","viability, T/C [26] [%]",other results
CC(C)NCC(C(=O)N1CCN(c2ncnc3c2C(C)CC3O)CC1)c1ccc(Cl)cc1 (stereo not given) + CC1OCC2(CCN(c3cnc(Sc4ccnc(N)c4Cl)c(N)n3)CC2)C1N,> 10,> 10,> 10,> 10,> 10,83.1,84.9,54.9,61.9,93,55.3,55.9,44,77,71.9,58.7,59.7,70.9,69.5,56.3,"viability, T/C [5]: 64%; viability, T/C [6]: 88.8%; viability, T/C [11]: 60.1%; viability, T/C [12]: 70.9%; viability, T/C [16]: 62%; viability, T/C [17]: 59.2%; viability, T/C [18]: 69.3%; viability, T/C [21]: 56.1%; viability, T/C [22]: 55.2%; viability, T/C [23]: 51.8%; viability, T/C [24]: 61%; viability, T/C [27]: 65.9%; viability, T/C [28]: 66.1%; viability, T/C [29]: 68.9%; viability, T/C [30]: 56.4%"
CC(C)n1nc(-c2ccc3oc(N)nc3c2)c2c(N)ncnc21 + CC1OCC2(CCN(c3cnc(Sc4ccnc(N)c4Cl)c(N)n3)CC2)C1N,> 0.1,> 0.1,> 0.1,> 0.1,> 0.1,86.2,77,–,–,71.3,65.5,–,–,89.7,80.7,–,91.8,92.9,112,100,"viability, T/C [31]: 92.4%; viability, T/C [32]: 90.3%; viability, T/C [33]: 100%; viability, T/C [34]: 89.7%; viability, T/C [35]: 104%; viability, T/C [36]: 85.6%; viability, T/C [37]: 88.6%; viability, T/C [38]: 60.8%; viability, T/C [39]: 86.5%; viability, T/C [40]: 84.9%; viability, T/C [41]: 78%; viability, T/C [42]: 102%; viability, T/C [43]: 60.2%; viability, T/C [44]: 91.6%; viability, T/C [45]: 90.1%; viability, T/C [46]: 93.9%; viability, T/C [47]: 76.8%; viability, T/C [48]: 85.7%; viability, T/C [49]: 89.2%; viability, T/C [50]: 105%"
CC1(C)CCC(CN2CCN(c3ccc(C(=O)NS(=O)(=O)c4ccc(NCC5CCOCC5)c([N+](=O)[O-])c4)c(Oc4cnc5[nH]ccc5c4)c3)CC2)=C(c2ccc(Cl)cc2)C1 + CC1OCC2(CCN(c3cnc(Sc4ccnc(N)c4Cl)c(N)n3)CC2)C1N,> 10,> 10,4.32,2.98,3.65,81.4,93.4,91.2,82.3,72.6,71.3,89.1,69.5,65.7,74.5,42.8,48.8,58.4,89.7,66.9,"viability, T/C [5]: 72.6%; viability, T/C [6]: 78.2%; viability, T/C [11]: 67.8%; viability, T/C [12]: 57.4%; viability, T/C [16]: 58.7%; viability, T/C [17]: 59.9%; viability, T/C [18]: 23.5%; viability, T/C [21]: 61.7%; viability, T/C [22]: 62.8%; viability, T/C [23]: 60.2%; viability, T/C [24]: 29.9%; viability, T/C [27]: 74.8%; viability, T/C [28]: 61.6%; viability, T/C [29]: 60.6%; viability, T/C [30]: 23.5%"
CCN1CCN(Cc2ccc(Nc3ncc(F)c(-c4cc(F)c5nc(C)n(C(C)C)c5c4)n3)nc2)CC1 + CC1OCC2(CCN(c3cnc(Sc4ccnc(N)c4Cl)c(N)n3)CC2)C1N,0.735,> 1,0.162,< 0.00316,0.0478,103,60.1,81.7,38.7,69.1,63.2,64.2,40.6,75.5,49.4,43.1,57.9,41.7,48.2,50,"viability, T/C [33]: 80.7%; viability, T/C [34]: 79%; viability, T/C [37]: 59.2%; viability, T/C [38]: 63.5%; viability, T/C [41]: 49.9%; viability, T/C [42]: 67.8%; viability, T/C [16]: 24.3%; viability, T/C [45]: 49.7%; viability, T/C [46]: 40.7%; viability, T/C [21]: 30.9%; viability, T/C [22]: 29.4%; viability, T/C [49]: 68.1%; viability, T/C [50]: 57.4%; viability, T/C [27]: 39.9%; viability, T/C [28]: 29.2%"
COc1cc2nccc(Oc3ccc(NC(=O)C4(C(=O)Nc5ccc(F)cc5)CC4)cc3)c2cc1OC + CC1OCC2(CCN(c3cnc(Sc4ccnc(N)c4Cl)c(N)n3)CC2)C1N,> 10,> 10,> 10,> 10,> 10,68.4,72.7,83.2,84.7,64.3,62.7,78.9,92.6,64.4,74.4,90,57.9,68.1,78.2,92.5,"viability, T/C [5]: 94%; viability, T/C [6]: 130%; viability, T/C [11]: 150%; viability, T/C [12]: 96.4%; viability, T/C [16]: 93.1%; viability, T/C [17]: 143%; viability, T/C [18]: 85.8%; viability, T/C [21]: 88.5%; viability, T/C [22]: 71.9%; viability, T/C [23]: 80.7%; viability, T/C [24]: 99.4%; viability, T/C [27]: 110%; viability, T/C [28]: 103%; viability, T/C [29]: 107%; viability, T/C [30]: 70.6%"
Cn1ncnc1[C@H]1c2n[nH]c(=O)c3cc(F)cc(c23)N[C@@H]1c1ccc(F)cc1 + CC1OCC2(CCN(c3cnc(Sc4ccnc(N)c4Cl)c(N)n3)CC2)C1N,> 0.1,> 0.1,> 0.1,> 0.1,> 0.1,81.5,101,–,–,77.3,80.2,–,–,59.1,82.9,–,59.9,75.1,65.4,65.8,"viability, T/C [31]: 81.5%; viability, T/C [32]: 81.4%; viability, T/C [33]: 91.9%; viability, T/C [34]: 88.9%; viability, T/C [35]: 68%; viability, T/C [36]: 87.3%; viability, T/C [37]: 77%; viability, T/C [38]: 56.7%; viability, T/C [39]: 99.4%; viability, T/C [40]: 58.1%; viability, T/C [41]: 82.4%; viability, T/C [42]: 65.5%; viability, T/C [43]: 57.1%; viability, T/C [44]: 49.4%; viability, T/C [45]: 59.5%; viability, T/C [46]: 53.7%; viability, T/C [47]: 62%; viability, T/C [48]: 68.4%; viability, T/C [49]: 84.7%; viability, T/C [50]: 65.7%"
